Experimental data: PMC6158578, “Optimization and Lead Selection of Benzothiazole Amide Analogs Toward a Novel Antimycobacterial Agent” (Frontiers in Microbiology, 2018)
≈ marks a conversion by molar mass, not a printed value. Like-named read-outs stand apart in the source and are kept apart here.

Assays:
[1] = format: cell-based; settings: for Interpretation of checkerboard synergy testing: antibiotic in combination with CRS400393 (benzothiazole amides)
M. abscessus 79 = assay: MIC in MHB versus 7H9+OADC; format: cell-based
[2] = system: M. chelonae (n = 11) clinical isolates; assay: MIC against rapid-growing NTM clinical isolates; format: cell-based; settings: for MIC90: Mycobacteroides chelonae
Other NTM (n = 12) = assay: MIC against rapid-growing NTM clinical isolates; format: cell-based
[3] = system: M. abscessus (n = 20) clinical isolates; assay: MIC against rapid-growing NTM clinical isolates; format: cell-based; settings: for MIC90: Mycobacteroides abscessus
[4] = system: M. fortuitum (n = 11) clinical isolates; assay: MIC against rapid-growing NTM clinical isolates; format: cell-based; settings: for MIC90: Mycolicibacterium fortuitum
M. abscessus 21 = assay: MIC in MHB versus 7H9+OADC; format: cell-based
M. abscessus 1 = assay: MIC in MHB versus 7H9+OADC; format: cell-based
M. intracellulare 1956 = assay: MIC, Middlebrook medium (7H9 + OADC, 7 days); format: cell-based; settings: Mycobacterium intracellulare, 1956, 168 h
[5] = system: M. peregrinum ATCC 700686; assay: MIC, broth microdilution with resazurin (MHB, 3 days); format: cell-based; settings: Mycolicibacterium peregrinum, ATCC700686
physchem = format: physicochemical; settings: pH 7.4, aqueous buffer, thermodynamic from solid
Procedure: (§1) ADMET assays were performed through NIAID Preclinical Services and Eurofins. Potential for cytotoxicity was monitored in HepG2 cells after 72 h growth in the presence of test compounds, either prepared as 10-point 3-fold serial dilutions or at a fixed 10 μM concentration. Cell viability was measured using the CellTiter-Glo® Luminescent Cell Viability Assay (Promega) or via fluorescent image analysis. Cytotoxicity was expressed as IC50 or as percent reduction of viable cells relative to a reference compound. Metabolic stability of compounds was evaluated via incubation with human liver microsomes at 37°C and quantitative analysis of parent compound by LC-MS/MS in samples removed at 0, 5, 15, 30, and 45 min (Obach, [1999]). For cytochrome P450 (CYP) inhibition assays, compounds were prepared as a 7-point dilution series and incubated with human liver microsomes in buffer containing 2 mM NADPH and probe substrate. […] Thermodynamic solubility of compounds in aqueous media was determined by incubation in 50 mM potassium phosphate buffer (pH 7.4) for 24 h, followed by HPLC-UV detection of compound in the filtrate (Analiza, Cleveland, OH, United States).

P. aeruginosa ATCC 35151 = assay: MIC, spectrum of activity; format: cell-based; settings: Pseudomonas aeruginosa, ATCC35151
M. chelonae 93 = assay: MIC, broth microdilution with resazurin (MHB, 3 days); format: cell-based; settings: Mycobacteroides chelonae, 93
[6] = system: M. abscessus massiliense 119; assay: as above; format: cell-based; settings: Mycobacteroides abscessus
[7] = system: M. tuberculosis H37Rv mc^2 6206; assay: microbe, parasite or virus in culture; format: cell-based; settings: Mycobacterium tuberculosis, 168 h
S. aureus ATCC 29213 = assay: MIC, spectrum of activity; format: cell-based; settings: Staphylococcus aureus, ATCC29213
[8] = system: E. coli ATCC 25922 + PMBN (permeabilized); assay: MIC, spectrum of activity; format: cell-based; settings: Escherichia coli, ATCC25922
M. avium 101 = assay: MIC, Middlebrook medium (7H9 + OADC, 7 days); format: cell-based; settings: Mycobacterium avium, 101, 168 h
CYP2B6 = biological target: T1, CYP2B6 (Homo sapiens, UniProt P20813); assay: CYP inhibition in human liver microsomes; format: in vitro ADME
T1 construct: incubated with human liver microsomes in buffer containing 2 mM NADPH and probe substrate; from tissue; host or cells: human liver microsomes
T1 sequence (P20813 1-491): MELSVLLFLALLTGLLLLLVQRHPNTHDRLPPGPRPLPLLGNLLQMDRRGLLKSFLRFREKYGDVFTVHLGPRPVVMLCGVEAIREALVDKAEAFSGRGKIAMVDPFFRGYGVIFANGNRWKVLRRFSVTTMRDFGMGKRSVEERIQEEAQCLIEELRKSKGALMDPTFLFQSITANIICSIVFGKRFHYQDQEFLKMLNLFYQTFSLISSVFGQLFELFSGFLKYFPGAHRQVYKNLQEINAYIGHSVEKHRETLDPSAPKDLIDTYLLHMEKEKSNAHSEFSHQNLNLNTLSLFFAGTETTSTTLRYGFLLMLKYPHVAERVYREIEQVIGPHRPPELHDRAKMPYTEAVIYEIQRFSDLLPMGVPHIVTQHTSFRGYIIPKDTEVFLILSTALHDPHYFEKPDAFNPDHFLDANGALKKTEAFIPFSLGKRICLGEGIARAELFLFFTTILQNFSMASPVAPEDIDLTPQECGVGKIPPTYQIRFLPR
Procedure: as §1

CYP3A = assay: CYP inhibition in human liver microsomes; format: in vitro ADME
Procedure: as §1

[9] = system: E. coli tolC CGSC 5633 (efflux mutant strain); assay: microbe, parasite or virus in culture; format: cell-based; settings: Escherichia coli
[10] = 50% complement-inactivated human serum
C. albicans ATCC 10231 = assay: MIC, spectrum of activity; format: cell-based; settings: Candida albicans, ATCC10231
S. pyogenes ATCC 19615 = assay: MIC, spectrum of activity; format: cell-based; settings: Streptococcus pyogenes, ATCC19615
M. abscessus ATCC 19977 = assay: MIC, broth microdilution with resazurin (MHB, 3 days); format: cell-based; settings: Mycobacteroides abscessus, ATCC19977
M. fortuitum 41 = assay: as above; format: cell-based; settings: Mycolicibacterium fortuitum, 41
HepG2 cytotoxicity, 72 h = format: cell-based; settings: human, HepG2 cells, HepG2, 72 h, read-out: HepG2 cytotox., IC50
Procedure: as §1

M. chimaera 1502055 = assay: MIC, Middlebrook medium (7H9 + OADC, 7 days); format: cell-based; settings: 1502055, 168 h
S. pneumoniae ATCC 49619 = assay: MIC, spectrum of activity; format: cell-based; settings: Streptococcus pneumoniae, ATCC49619
E. faecalis ATCC 29212 = assay: MIC, spectrum of activity; format: cell-based; settings: Enterococcus faecalis, ATCC29212
[11] = antibiotic in checkerboard combination with CRS400393
[12] = M. abscessus 79, 7H9 + OADC (5 mg/mL albumin)
[13] = M. chelonae (n = 11), read-out: MIC90
[14] = Other NTM (n = 12), read-out: MIC90
[15] = M. abscessus (n = 20), read-out: MIC90
[16] = M. fortuitum (n = 11), read-out: MIC90
[17] = M. abscessus 21, 7H9 + OADC (5 mg/mL albumin)
[18] = M. abscessus 1, 7H9 + OADC (5 mg/mL albumin)

NCC[C@H](O)C(=O)N[C@@H]1C[C@H](N)[C@@H](O[C@H]2O[C@H](CN)[C@@H](O)[C@H](O)[C@H]2O)[C@H](O)[C@H]1O[C@H]1O[C@H](CO)[C@@H](O)[C@H](N)[C@H]1O [Amikacin, reference compound]
FIC Index [1, 11]: 1 | Interpretation of checkerboard synergy testing [1]: additive | MIC (M. abscessus 79; [12]): 4 µg/mL | MIC (M. abscessus 79; M. abscessus 79, MHB): 2 µg/mL (≈ 3.42 µM) | MIC90 [2, 13]: > 16 µg/mL | MIC range (Other NTM (n = 12); Other NTM (n = 12)): 0.5 to 16 µg/mL | MIC90 (Other NTM (n = 12); [14]): 16 µg/mL (≈ 27.3 µM) | MIC90 [3, 15]: 16 µg/mL (≈ 27.3 µM) | MIC range ([4]; M. fortuitum (n = 11)): 0.5 to 4 µg/mL | MIC90 [4, 16]: 2 µg/mL (≈ 3.42 µM) | MIC (M. abscessus 21; [17]): 4 µg/mL | MIC (M. abscessus 21; M. abscessus 21, MHB): 2 µg/mL (≈ 3.42 µM) | MIC (M. abscessus 1; [18]): 16 µg/mL | MIC (M. abscessus 1; M. abscessus 1, MHB): 8 µg/mL (≈ 13.7 µM)

CC[C@H]1OC(=O)[C@H](C)[C@@H](O[C@H]2C[C@@](C)(OC)[C@@H](O)[C@H](C)O2)[C@H](C)[C@@H](O[C@@H]2O[C@H](C)C[C@H](N(C)C)[C@H]2O)[C@](C)(O)C[C@@H](C)CN(C)[C@H](C)[C@@H](O)[C@]1(C)O [Azithromycin, reference compound]
FIC Index [1, 11]: 1 | Interpretation of checkerboard synergy testing [1]: additive | MIC range ([2]; M. chelonae (n = 11)): 0.12 to 0.5 µg/mL | MIC90 [2, 13]: 0.5 µg/mL (≈ 0.668 µM) | MIC90 (Other NTM (n = 12); [14]): > 8 µg/mL | MIC90 [3, 15]: > 8 µg/mL | MIC90 [4, 16]: > 8 µg/mL | lung histology (Mabs 21; after 4 weeks of treatment): only minimal pathologic evidence of inflammatory infiltrates | reduction of lung CFU compared to the untreated group (Mabs 21; oral gavage 100 mg/kg, 4 weeks): 0.38 Log10 CFU

COc1nc2ccc(Br)cc2cc1[C@@H](c1ccccc1)[C@@](O)(CCN(C)C)c1cccc2ccccc12 [Bedaquiline]
FIC Index [1, 11]: 2 | Interpretation of checkerboard synergy testing [1]: indifferent | Interpretation of checkerboard synergy testing ([1]; listed as bedaquiline): indifference

CC12CCCC(C(=O)Nc3nc4ccc(OC(F)(F)F)cc4s3)(CCC1)C2 [CRS400359]
MIC (M. intracellulare 1956): 2 µg/mL | MIC (M. abscessus 79; [12]): 0.25 µg/mL | MIC (M. abscessus 79; M. abscessus 79, MHB): 0.06 µg/mL (≈ 0.151 µM) | MIC [5]: 0.12 µg/mL (≈ 0.301 µM) | solubility at 24 h (physchem): < 3 µM | MIC (P. aeruginosa ATCC 35151): 64 µg/mL (≈ 161 µM) | MIC range ([2]; M. chelonae (n = 11)): 0.25 to 0.5 µg/mL | MIC90 [2]: 0.25 µg/mL (≈ 0.627 µM) | MIC (M. chelonae 93): 0.12 µg/mL (≈ 0.301 µM) | MIC [6]: ≤ 0.06 µg/mL | MIC [7]: 0.5 µg/mL (≈ 1.25 µM) | MIC (S. aureus ATCC 29213): > 64 µg/mL | MIC [8]: > 64 µg/mL | MIC (M. avium 101): 2 µg/mL | MIC90 (Other NTM (n = 12)): 0.5 µg/mL (≈ 1.25 µM) | MIC range (Other NTM (n = 12); Other NTM (n = 12)): 0.12 to 2 µg/mL | inhibition at 10 µM (CYP2B6): 30% | inhibition at 10 µM (CYP3A): 0% | MIC range ([3]; M. abscessus (n = 20)): 0.06 to 2 µg/mL | MIC90 [3]: 0.25 µg/mL (≈ 0.627 µM) | MIC range ([4]; M. fortuitum (n = 11)): 0.06 to 1 µg/mL | MIC90 [4]: 1 µg/mL (≈ 2.51 µM) | MIC [9]: > 64 µg/mL | Protein (serum) binding [10]: >95% | MIC (C. albicans ATCC 10231): 64 µg/mL (≈ 161 µM) | MIC (S. pyogenes ATCC 19615): > 64 µg/mL | MIC (M. abscessus ATCC 19977): ≤ 0.06 µg/mL | MIC (M. fortuitum 41): 0.12 µg/mL (≈ 0.301 µM) | IC50 at 72 h (HepG2 cytotoxicity, 72 h): 10 µM | IC50 at 72 h (HepG2 cytotoxicity, 72 h; value in brackets): 4 µg/mL | MIC (M. abscessus 21; [17]): 2 µg/mL | MIC (M. abscessus 21; M. abscessus 21, MHB): 0.06 µg/mL (≈ 0.151 µM) | MIC (M. chimaera 1502055): 2 µg/mL | MIC (S. pneumoniae ATCC 49619): 32 µg/mL (≈ 80.3 µM) | MIC (E. faecalis ATCC 29212): > 64 µg/mL | MIC (M. abscessus 1; [18]): 1 µg/mL | MIC (M. abscessus 1; M. abscessus 1, MHB): 0.06 µg/mL (≈ 0.151 µM)

CO[C@@]1(NC(=O)Cc2cccs2)C(=O)N2C(C(=O)O)=C(COC(N)=O)CS[C@@H]21 [Cefoxitin]
FIC Index [1, 11]: 0.56 | Interpretation of checkerboard synergy testing [1]: additive

CC(C)/N=c1\cc2n(-c3ccc(Cl)cc3)c3ccccc3nc-2cc1Nc1ccc(Cl)cc1 [Clofazimine]
FIC Index [1, 11]: 0.52 | Interpretation of checkerboard synergy testing [1]: additive

C[C@H]1c2cccc(O)c2C(=O)C2=C(O)[C@]3(O)C(=O)C(C(N)=O)=C(O)[C@@H](N(C)C)[C@@H]3[C@@H](O)[C@@H]21 [Doxycycline]
FIC Index [1, 11]: 2 | Interpretation of checkerboard synergy testing [1]: indifferent | Interpretation of checkerboard synergy testing ([1]; listed as doxycycline): indifference

CC(=O)NC[C@H]1CN(c2ccc(N3CCOCC3)c(F)c2)C(=O)O1 [Linezolid, reference compound]
FIC Index [1]: 0.56 | MIC range ([2]; M. chelonae (n = 11)): 1 to 8 µg/mL | MIC90 [2, 13]: 8 µg/mL (≈ 23.7 µM) | MIC90 (Other NTM (n = 12); [14]): > 8 µg/mL | MIC90 [3, 15]: > 8 µg/mL | MIC90 [4, 16]: > 8 µg/mL

Cc1cc(NS(=O)(=O)c2ccc(N)cc2)no1 [Sulfamethoxazole]
FIC Index [1]: 0.56

NC[C@H]1O[C@H](O[C@H]2[C@H](O)[C@@H](O[C@H]3O[C@H](CO)[C@@H](O)[C@H](N)[C@H]3O)[C@H](N)C[C@@H]2N)[C@H](N)C[C@@H]1O [Tobramycin]
FIC Index [1, 11]: 0.75 | Interpretation of checkerboard synergy testing [1]: additive
